Experimental data from US11566007B2, “Ras inhibitors” (Revolution Medicines, Inc., priority 2019, dated 2023).

Experiments:
NCI-H358 (K-Ras G12C) = assay: CellTiter-Glo cell viability assay, NCI-H358; assay type: cell-based, human; conditions: Homo sapiens, NCI-H358, 120 h, NCI-H358, 5-day treatment; class symbols; read-out: Additional H358 Cell Viability assay data (K-Ras G12C, IC50)
In short: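 Compounds dispensed directly onto seeded K-Ras mutant cells; plates read on day 5 after ~30 min equilibration to room temperature, by CellTiter-Glo luminescence. Signal normalized as (sample/mean DMSO)×100, then fitted to a four-parameter logistic curve.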

K-Ras G12C = K-Ras G12C (Homo sapiens (Human), UniProt P01116+P62937, G12C); assay: Ras-Raf (BRAF RBD) disruption / FRET / MOA assay, KRAS G12C; assay type: biochemical; conditions: KRAS G12C; Ras-Raf disruption/FRET/MOA assay; read-out: IC50* KRAS G12C FRET data
In short: (§1)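 TR-FRET read-out: a drop in ratio relative to DMSO wells marks disruption of the Ras:RAF complex, reported as IC50. Compounds (3-fold series, 10 points, top 30 μM final) incubated 3 h at 25° C before Eu-anti-His 10 nM and APC-anti-GST 50 nM, 1.5 h more.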

KRAS G12S = KRAS G12S (Homo sapiens (Human), UniProt P01116+P62937, G12S); assay: Ras-Raf (BRAF RBD) disruption / FRET / MOA assay, KRAS G12S; assay type: biochemical; conditions: Ras-Raf disruption/FRET/MOA assay; class symbols; read-out: KRAS G12S FRET data IC50
In short: as §1

KRAS G12D = KRAS G12D (Homo sapiens (Human), UniProt P01116+P62937, G12D); assay: Ras-Raf (BRAF RBD) disruption / FRET / MOA assay, KRAS G12D; assay type: biochemical; conditions: Ras-Raf disruption/FRET/MOA assay; class symbols; read-out: KRAS G12D FRET data IC50
In short: as §1

KRAS WT = KRAS WT (Homo sapiens (Human), UniProt P01116+P62937); assay: Ras-Raf (BRAF RBD) disruption / FRET / MOA assay, KRAS WT; assay type: biochemical; conditions: read-out: IC50* KRAS WT FRET data
In short: as §1

NRAS Q61R = NRAS Q61R (Homo sapiens (Human), UniProt P01111+P62937, Q61R); assay: Ras-Raf (BRAF RBD) disruption / FRET / MOA assay, NRAS Q61R; assay type: biochemical; conditions: NRAS Q61R; Ras-Raf disruption/FRET/MOA assay; read-out: IC50* NRAS Q61R FRET data
In short: (§2)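 Compounds were tested as a 10-point 3-fold dilution series from 30 μM final for their ability to drive ternary complex formation between nucleotide-loaded Ras and cyclophilin A, displacing the BRAF RBD. After 3 h at 25° C., anti-His Eu-W1024 (10 nM) and anti-GST allophycocyanin (50 nM) were added for 1.5 h. A TR-FRET ratio decrease versus DMSO gave IC50.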

NRAS Q61K = NRAS Q61K (Homo sapiens (Human), UniProt P01111+P62937, Q61K); assay: Ras-Raf (BRAF RBD) disruption / FRET / MOA assay, NRAS Q61K; assay type: biochemical; conditions: NRAS Q61K; Ras-Raf disruption/FRET/MOA assay; read-out: IC50* NRAS Q61K FRET data
In short: as §2

Chain of NRAS Q61K (P01111 whole entry Q61K): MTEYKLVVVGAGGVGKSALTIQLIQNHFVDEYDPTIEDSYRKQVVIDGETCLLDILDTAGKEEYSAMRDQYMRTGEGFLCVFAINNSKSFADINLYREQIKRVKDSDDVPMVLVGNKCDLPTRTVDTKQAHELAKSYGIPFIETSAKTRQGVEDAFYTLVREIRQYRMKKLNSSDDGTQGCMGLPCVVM
Chain of NRAS Q61K (P62937 whole entry): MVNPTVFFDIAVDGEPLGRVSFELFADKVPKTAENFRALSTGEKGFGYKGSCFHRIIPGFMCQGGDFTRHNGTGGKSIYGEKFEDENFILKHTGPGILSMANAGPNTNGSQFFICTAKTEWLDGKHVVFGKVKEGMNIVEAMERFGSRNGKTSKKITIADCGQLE
Chain of K-Ras G12C (P01116-2 other isoform, or with tags, fused parts or gaps G12C): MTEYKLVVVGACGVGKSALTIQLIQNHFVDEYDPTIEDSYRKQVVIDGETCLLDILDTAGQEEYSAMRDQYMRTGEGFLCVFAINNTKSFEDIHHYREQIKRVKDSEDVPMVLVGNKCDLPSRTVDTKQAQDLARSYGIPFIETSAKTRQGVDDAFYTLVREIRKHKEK
Chain of K-Ras G12C (P62937 whole entry): as the sequence (P62937 whole entry) above
Chain of KRAS G12D (P01116-2 other isoform, or with tags, fused parts or gaps G12D): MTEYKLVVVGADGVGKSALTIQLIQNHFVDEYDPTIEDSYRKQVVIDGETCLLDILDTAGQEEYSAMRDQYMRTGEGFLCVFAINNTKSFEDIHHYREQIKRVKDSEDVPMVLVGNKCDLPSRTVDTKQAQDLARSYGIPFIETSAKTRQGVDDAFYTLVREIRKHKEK
Chain of KRAS G12D (P62937 whole entry): as the sequence (P62937 whole entry) above
Chain of KRAS WT (P01116-2 other isoform, or with tags, fused parts or gaps): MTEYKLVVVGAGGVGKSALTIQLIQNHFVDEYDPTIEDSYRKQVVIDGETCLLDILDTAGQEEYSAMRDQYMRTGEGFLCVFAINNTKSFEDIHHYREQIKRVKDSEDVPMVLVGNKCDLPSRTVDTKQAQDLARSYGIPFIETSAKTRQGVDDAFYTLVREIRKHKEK
Chain of KRAS WT (P62937 whole entry): as the sequence (P62937 whole entry) above
Chain of KRAS G12S (P01116-2 other isoform, or with tags, fused parts or gaps G12S): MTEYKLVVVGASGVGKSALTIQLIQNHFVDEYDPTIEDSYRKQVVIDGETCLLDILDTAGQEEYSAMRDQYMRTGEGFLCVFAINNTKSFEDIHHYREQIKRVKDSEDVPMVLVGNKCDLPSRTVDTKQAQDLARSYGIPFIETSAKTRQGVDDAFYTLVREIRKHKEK
Chain of KRAS G12S (P62937 whole entry): as the sequence (P62937 whole entry) above
Chain of NRAS Q61R (P01111 whole entry Q61R): as the sequence (P01111 whole entry Q61K) above, with K61R counted along it
Chain of NRAS Q61R (P62937 whole entry): as the sequence (P62937 whole entry) above

SMILES | IC50 (NCI-H358 (K-Ras G12C)) | IC50 (K-Ras G12C) | IC50 (KRAS G12S) | IC50 (KRAS G12D) | IC50 (KRAS WT) | IC50 (NRAS Q61R) | IC50 (NRAS Q61K)
CO[C@@H](C)c1ncccc1-c1c2c3cc(ccc3n1CC(F)(F)F)-c1csc(n1)C[C@H](NC(=O)[C@H](C(C)C)N(C)C(=O)N1CCN(C(=O)/C=C/CN(C)C)C3(CC3)C1)C(=O)N1CCC[C@H](N1)C(=O)OCC(C)(C)C2 (atropisomer, axis not shown) [Example A664] | 0.01 to 0.1 µM | 0.01 to 0.1 µM | 0.01 to 0.1 µM | 0.01 to 0.1 µM | 0.01 to 0.1 µM | 0.01 to 0.1 µM | 0.01 to 0.1 µM
C=CC(=O)N1CC(N2CCN(C(=O)N(C)[C@H](C(=O)N[C@H]3Cc4nc(cs4)-c4ccc5c(c4)c(c(-c4cccnc4[C@H](C)OC)n5CC)CC(C)(C)COC(=O)[C@@H]4CCCN(N4)C3=O)C(C)C)CC2)C1 (atropisomer, axis not shown) [Example A668] | 0.01 to 0.1 µM | 0.01 to 0.1 µM | 0.1 to 1 µM | 1 to 10 µM | 0.1 to 1 µM | 0.1 to 1 µM | 0.01 to 0.1 µM
CO[C@@H](C)c1ncccc1-c1c2c3cc(ccc3n1CC(F)(F)F)-c1nc(co1)C[C@H](NC(=O)[C@@H](COC1CN(C(=O)C#CC(C)(C)N(C)C)C1)C(C)C)C(=O)N1CCC[C@H](N1)C(=O)OCC(C)(C)C2 (atropisomer, axis not shown) [Example A674] | < 0.01 µM | 0.01 to 0.1 µM | > 10 µM | > 10 µM | > 10 µM | > 10 µM | > 10 µM
C=CC(=O)N1CC[C@@]2(COCCN2C(=O)N(C)[C@H](C(=O)N[C@H]2Cc3nc(cs3)-c3ccc4c(c3)c(c(-c3cccnc3[C@H](C)OC)n4CC)CC(C)(C)COC(=O)[C@@H]3CCCN(N3)C2=O)C(C)C)C1 (atropisomer, axis not shown) [Example A677] | < 0.01 µM | 0.1 to 1 µM | 0.1 to 1 µM | 1 to 10 µM | 0.1 to 1 µM | 0.1 to 1 µM | 0.1 to 1 µM
C=CC(=O)N1CCC2(CC1)CCN2C(=O)N(C)[C@H](C(=O)N[C@H]1Cc2nc(cs2)-c2ccc3c(c2)c(c(-c2cccnc2[C@H](C)OC)n3CC)CC(C)(C)COC(=O)[C@@H]2CCCN(N2)C1=O)C(C)C (atropisomer, axis not shown) [Example A678] | 0.01 to 0.1 µM | 0.01 to 0.1 µM | 0.1 to 1 µM | 0.1 to 1 µM | 0.1 to 1 µM | 0.01 to 0.1 µM | 0.01 to 0.1 µM
CCn1c(-c2cccnc2[C@H](C)OC)c2c3cc(ccc31)-c1csc(n1)C[C@H](NC(=O)[C@H](C(C)C)N(C)C(=O)N1CCC3(CC1)CN(C(=O)/C=C/C(F)F)C3)C(=O)N1CCC[C@H](N1)C(=O)OCC(C)(C)C2 (atropisomer, axis not shown) [Example A683] | 0.01 to 0.1 µM | 0.01 to 0.1 µM | 0.1 to 1 µM | 0.1 to 1 µM | 0.1 to 1 µM | 0.1 to 1 µM | 0.01 to 0.1 µM
C=CC(=O)N1CC[C@H](C(=O)N(C)[C@H](C(=O)N[C@H]2Cc3cccc(c3)-c3ccc4c(c3)c(c(-c3cccnc3[C@H](C)OC)n4CC)CC(C)(C)COC(=O)[C@@H]3CCCN(N3)C2=O)C(C)(C)F)C1 (atropisomer, axis not shown) [Example A693] | 0.1 to 1 µM | 0.1 to 1 µM | 1 to 10 µM | > 10 µM | 1 to 10 µM | 1 to 10 µM | 1 to 10 µM
C=CC(=O)N1CCC2(CCN(C(=O)N(C)[C@H](C(=O)N[C@H]3Cc4nc(cs4)-c4ccc5c(c4)c(c(-c4cccnc4[C@H](C)OC)n5CC)CC(C)(C)COC(=O)[C@@H]4CCCN(N4)C3=O)C(C)C)CC2)C1 (atropisomer, axis not shown) [Example A698] | 0.01 to 0.1 µM | 0.01 to 0.1 µM | 0.1 to 1 µM | 0.1 to 1 µM | 0.1 to 1 µM | 0.1 to 1 µM | 0.01 to 0.1 µM
CCn1c(-c2cccnc2[C@H](C)OC)c2c3cc(ccc31)-c1csc(n1)C[C@H](NC(=O)[C@H](C(C)C)N(C)C(=O)N1CCN(C(=O)/C=C/CN(C)C)C3(CC3)C1)C(=O)N1CCC[C@H](N1)C(=O)OCC(C)(C)C2 (atropisomer, axis not shown) [Example A701] | 0.01 to 0.1 µM | 0.01 to 0.1 µM | 0.1 to 1 µM | 0.1 to 1 µM | 0.1 to 1 µM | 0.1 to 1 µM | 0.01 to 0.1 µM
C=CC(=O)N1CCC2(CC1)CN(C(=O)N(C)[C@H](C(=O)N[C@H]1Cc3nc(cs3)-c3ccc4c(c3)c(c(-c3cccnc3[C@H](C)OC)n4CC)CC(C)(C)COC(=O)[C@@H]3CCCN(N3)C1=O)C(C)C)C2 (atropisomer, axis not shown) [Example A702] | 0.01 to 0.1 µM | 0.1 to 1 µM | 0.1 to 1 µM | 1 to 10 µM | 0.1 to 1 µM | 0.1 to 1 µM | 0.01 to 0.1 µM
C=CC(=O)N(C)[C@H]1C[C@@H](N(C)C(=O)N(C)[C@H](C(=O)N[C@H]2Cc3nc(cs3)-c3ccc4c(c3)c(c(-c3cccnc3[C@H](C)OC)n4CC)CC(C)(C)COC(=O)[C@@H]3CCCN(N3)C2=O)C(C)C)C1 (atropisomer, axis not shown) [Example A704] | < 0.01 µM | 0.01 to 0.1 µM | 0.1 to 1 µM | 0.1 to 1 µM | 0.01 to 0.1 µM | 0.01 to 0.1 µM | 0.01 to 0.1 µM
C=CC(=O)N(C)[C@H]1C[C@H](N(C)C(=O)N(C)[C@H](C(=O)N[C@H]2Cc3nc(cs3)-c3ccc4c(c3)c(c(-c3cccnc3[C@H](C)OC)n4CC)CC(C)(C)COC(=O)[C@@H]3CCCN(N3)C2=O)C(C)C)C1 (atropisomer, axis not shown) [Example A712] | < 0.01 µM | 0.01 to 0.1 µM | 0.01 to 0.1 µM | 0.1 to 1 µM | 0.01 to 0.1 µM | 0.01 to 0.1 µM | 0.01 to 0.1 µM
C=CC(=O)N1CCO[C@@H]2CN(C(=O)N(C)[C@H](C(=O)N[C@H]3Cc4nc(cs4)-c4ccc5c(c4)c(c(-c4cccnc4[C@H](C)OC)n5CC)CC(C)(C)COC(=O)[C@@H]4CCCN(N4)C3=O)C(C)C)C[C@@H]21 (atropisomer, axis not shown) [Example A714] | < 0.01 µM | 0.1 to 1 µM | 0.1 to 1 µM | 1 to 10 µM | 0.1 to 1 µM | 0.1 to 1 µM | 0.1 to 1 µM
CCn1c(-c2cccnc2[C@H](C)OC)c2c3cc(ccc31)N1CCC[C@@H](C[C@H](NC(=O)[C@@H](COC3CN(C(=O)C#CC(C)(C)N(C)C)C3)C(C)C)C(=O)N3CCC[C@H](N3)C(=O)OCC(C)(C)C2)C1 (atropisomer, axis not shown) [Example A715, (2R)-2-(((1-(4-(dimethylamino)-4-methylpent-2-ynoyl)azetidin-3-yl)oxy)methyl)-N-((2^3S,6^3S,4S)-1^1-ethyl-1^2-(2-((S)-1-methoxyethyl)pyridin-3-yl)-10,10-dimethyl-5,7-dioxo-6^1,6^2,6^3,6^4,6^5,6^6-hexahydro-1^1H-8-oxa-1(5,3)-indola-6(1,3)-pyridazina-2(1,3)-piperidinacycloundecaphane-4-yl)-3-methylbutanamide] | 0.01 to 0.1 µM | 0.01 to 0.1 µM | > 10 µM | > 10 µM | > 10 µM | > 10 µM | > 10 µM
C=CC(=O)N1CCN(C(=O)N(C)[C@H](C(=O)N[C@H]2Cc3nc(cs3)-c3ccc4c(c3)c(c(-c3cccnc3[C@H](C)OC)n4CC)CC(C)(C)COC(=O)[C@@H]3CCCN(N3)C2=O)C(C)C)[C@@H]2CC[C@@H]21 (atropisomer, axis not shown) [Example A718] | < 0.01 µM | 0.1 to 1 µM | 0.1 to 1 µM | 1 to 10 µM | 0.1 to 1 µM | 0.1 to 1 µM | 0.01 to 0.1 µM
C=CC(=O)N1CC[C@]2(CCN(C(=O)N(C)[C@H](C(=O)N[C@H]3Cc4nc(cs4)-c4ccc5c(c4)c(c(-c4cccnc4[C@H](C)OC)n5CC)CC(C)(C)COC(=O)[C@@H]4CCCN(N4)C3=O)C(C)C)C2)C1 (atropisomer, axis not shown) [Example A719] | 0.01 to 0.1 µM | 0.01 to 0.1 µM | 0.1 to 1 µM | 0.1 to 1 µM | 0.1 to 1 µM | 0.01 to 0.1 µM | 0.01 to 0.1 µM
C=CC(=O)N1CC(OC[C@H](C(=O)N[C@H]2Cc3cc(F)cc(c3)-c3ccc4c(c3)c(c(-c3cccnc3[C@H](C)OC)n4CC(F)(F)F)CC(C)(C)COC(=O)[C@@H]3CCCN(N3)C2=O)C(C)C)C1 (atropisomer, axis not shown) [Example A725] | 0.01 to 0.1 µM | 0.1 to 1 µM | 1 to 10 µM | > 10 µM | 1 to 10 µM | 1 to 10 µM | 1 to 10 µM
